The source of these data is patent US20240408216A1, “PROTEIN INHIBITOR OR DEGRADING AGENT, PHARMACEUTICAL COMPOSITION CONTAINING SAME AND PHARMACEUTICAL USE” (JING MEDICINE TECHNOLOGY (SHANGHAI) LTD., priority 2021, published 2024).

Where only a bound is given, the exact number is not on record here.

The test system of assay [1] is BaF3 (EGFR L858R/T790M/C797S). Briefly: Cell proliferation IC50 assay (Cell Titer GLO), BaF3 LTC cells. It is filed as cell-based. Particulars: Mus musculus, Ba/F3 EGFR, Table 6, 72 h. A digest of the protocol: (§1)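 Cells plated at 2000-4000 per well, next day given serially diluted compound, then grown 72 h at 37 °C, 5% CO2. Viability by CellTiter-Glo luminescence versus DMSO control; IC50 from growth-inhibition curves.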
A general note: Cellular ATP, detected with luciferase, serves as a proxy for viable cell number.

Another assay relates to BaF3 (EGFR WT). Briefly: Cell proliferation IC50 assay (Cell Titer GLO), BaF3 WT cells. In kind it is cell-based. Particulars: Mus musculus, Ba/F3 EGFR, Table 6, 10 ng/ml EGF, 72 h. A digest of the protocol: as §1
A further assay has as its target T1, BaF3 (EGFR Del19/C797S) (Homo sapiens, UniProt P00533, C797S, cells depend on it, form not given).
T1 construct: BaF3 (EGFR Del19/C797S)|DC|RPMI1640 + 10% FBS
Briefly: Cell proliferation IC50 assay (Cell Titer GLO), BaF3 DC cells. In kind it is cell-based, mouse. As to conditions: Table 6, 72 h. The gist of the method: as §1

Assay [2] relates to BaF3 (EGFR Del19/T790M/C797S). Briefly: Cell proliferation IC50 assay (Cell Titer GLO), BaF3 DTC cells. Particulars: Mus musculus, Ba/F3 EGFR-Del19/T790M/C797S, Table 6, 72 h. It is filed as cell-based. The procedure:
IC50 of compounds in the present invention was determined by Cell Titer GLO reagent from Promega. The procedures are as follows:
Tumor cells were cultured in specified medium in an incubator at 37° C. and 5% CO2. The cells were passaged periodically. Cells at the logarithmic growth phase were collected for plating at a density of 2000-4000 cells/well. The next day, the compounds of the present invention were serially diluted and added to the cells, with DMSO being the negative control and the culture media without cells being the blank control. The plate was incubated in the incubator for 72 h. The cell viability assay was performed by adding the detection reagents to the cell culture media according to Cell Titer GLO reagent instructions and detecting luminescent signals on an EnVision microplate reader (PerkinElmer).
Inhibition of cell growth by the compounds of the present invention was plotted by Prism Graphpad software for statistically calculating the IC50 of the compound of the present invention.

The next assay concerns A431. Briefly: Cell proliferation IC50 assay (Cell Titer GLO), A431 cells. It is filed as cell-based. As to conditions: Homo sapiens, A-431; Table 6; A431, 72 h; read-out: A431 IC50. A digest of the protocol: as §1

T1 sequence (P00533 with tags, fused parts or gaps DEL746-750/C797S, form open): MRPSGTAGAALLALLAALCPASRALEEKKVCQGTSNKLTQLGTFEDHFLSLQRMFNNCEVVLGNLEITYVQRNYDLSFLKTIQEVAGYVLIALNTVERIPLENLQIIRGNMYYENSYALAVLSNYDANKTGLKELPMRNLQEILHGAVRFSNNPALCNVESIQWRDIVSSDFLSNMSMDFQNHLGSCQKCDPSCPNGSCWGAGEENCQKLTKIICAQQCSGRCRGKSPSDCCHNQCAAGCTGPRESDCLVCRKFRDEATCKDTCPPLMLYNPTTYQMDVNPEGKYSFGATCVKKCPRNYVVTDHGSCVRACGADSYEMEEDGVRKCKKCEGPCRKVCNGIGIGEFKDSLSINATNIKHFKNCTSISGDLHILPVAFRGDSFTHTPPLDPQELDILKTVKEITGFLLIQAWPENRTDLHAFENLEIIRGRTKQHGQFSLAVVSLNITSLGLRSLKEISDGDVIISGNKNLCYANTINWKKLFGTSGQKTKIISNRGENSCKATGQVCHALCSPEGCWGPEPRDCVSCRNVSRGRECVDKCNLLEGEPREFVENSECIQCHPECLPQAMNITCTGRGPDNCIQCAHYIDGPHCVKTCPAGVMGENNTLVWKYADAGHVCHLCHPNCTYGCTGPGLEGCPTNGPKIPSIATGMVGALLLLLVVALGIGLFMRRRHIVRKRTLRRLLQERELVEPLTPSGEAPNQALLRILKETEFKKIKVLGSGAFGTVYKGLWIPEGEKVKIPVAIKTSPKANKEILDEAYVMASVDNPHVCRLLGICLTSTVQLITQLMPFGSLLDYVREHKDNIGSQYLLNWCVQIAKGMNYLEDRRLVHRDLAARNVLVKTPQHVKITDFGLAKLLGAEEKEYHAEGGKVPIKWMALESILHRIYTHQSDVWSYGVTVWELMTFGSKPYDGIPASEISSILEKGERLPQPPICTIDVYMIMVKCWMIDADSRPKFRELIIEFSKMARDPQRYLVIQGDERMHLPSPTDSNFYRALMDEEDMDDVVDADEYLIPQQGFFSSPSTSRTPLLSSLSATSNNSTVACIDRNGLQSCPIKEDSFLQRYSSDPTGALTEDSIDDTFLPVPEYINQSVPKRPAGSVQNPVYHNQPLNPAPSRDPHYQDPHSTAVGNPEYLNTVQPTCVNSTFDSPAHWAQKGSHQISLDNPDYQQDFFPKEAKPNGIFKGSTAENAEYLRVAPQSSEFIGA

In the case of `CCc1cc(Nc2ncc(Cl)c(Nc3ccccc3P(C)(C)=O)n2)c(OC)cc1N1CCC(N2CCN(CC(C)(C)Oc3cccc4c3CN(C3CCC(=O)NC3=O)C4=O)CC2)CC1` (stereo not drawn) [Example E157], the IC50 (commonly the concentration that gives 50% inhibition) was 103 nM in assay [1]; 3780 nM in the assay with BaF3 (EGFR WT); 33.7 nM against BaF3 (EGFR Del19/C797S); 11.2 nM in assay [2]; 3170 nM in the assay with A431.
On the same counts, the results for `COc1cc(N2CCC(N3CCN(CCCCOc4cccc5c4CN(C4CCC(=O)NC4=O)C5=O)CC3)CC2)c(C2CC2)cc1Nc1ncc(Cl)c(Nc2ccccc2P(C)(C)=O)n1` (stereo not drawn) [Example E35] are 25.7 nM, 2500 nM, 8.9 nM, 5.59 nM and 1640 nM.
On the same counts, the results for `CCc1cc(Nc2ncc(Cl)c(Nc3ccccc3P(C)(C)=O)n2)c(OC)cc1N1CCC(N2CCN(C(=O)CNc3cccc4c3C(=O)N(C3CCC(=O)NC3=O)C4=O)CC2)CC1` (stereo not drawn) [Example E112] are 85.4 nM, more than 4000 nM, 10.7 nM, 18.4 nM and 1370 nM.
As to `COc1cc(C2CCN(C3CCN(CCCCOc4cccc5c4CN(C4CCC(=O)NC4=O)C5=O)CC3)CC2)c(OC)cc1Nc1ncc(Cl)c(Nc2ccccc2P(C)(C)=O)n1` (stereo not drawn) [Example E98], the IC50 amounted to 45.2 nM in assay [1]; 566 nM in the assay on BaF3 (EGFR WT); 5 nM against BaF3 (EGFR Del19/C797S); 15.5 nM in assay [2]; 1170 nM in the assay on A431.
On the same counts, the results for `CCc1cc(Nc2ncc(Cl)c(Nc3ccccc3P(C)(C)=O)n2)c(OC)cc1N1CCC(N2CCN([C@H]3C[C@H](Oc4cccc5c4CN(C4CCC(=O)NC4=O)C5=O)C3)CC2)CC1` (stereo partly drawn) [Example E160] are 14.3 nM, 1290 nM, 0.8 nM, 2.89 nM and 2410 nM.
Consider `CCc1cc(Nc2ncc(Cl)c(Nc3ccc4[nH]ncc4c3P(C)(C)=O)n2)c(OC)cc1N1CCC(N2CCN(CCC#Cc3cccc4c3CN(C3CCC(=O)NC3=O)C4=O)CC2)CC1` (stereo not drawn) [Example E51], for which the IC50 was 57.8 nM in assay [1], more than 4000 nM in the assay on BaF3 (EGFR WT), 14 nM against BaF3 (EGFR Del19/C797S) and 1090 nM with A431.
Consider `CCc1cc(Nc2ncc(Cl)c(Nc3ccccc3P(C)(C)=O)n2)c(OC)cc1N1CCC(N2CCc3ccc(Oc4cccc5c4CN(C4CCC(=O)NC4=O)C5=O)cc3CC2)CC1` (stereo not drawn) [Example E34], for which the half-inhibitory concentration (IC50) in assay [1] stood at 16.9 nM; in the assay on BaF3 (EGFR WT), 1260 nM; on BaF3 (EGFR Del19/C797S) it was 2.5 nM; with A431, 1480 nM.
On the same counts, the results for `CCc1cc(Nc2ncc(-c3cnn(C)c3)c(Nc3ccccc3P(C)(C)=O)n2)c(OC)cc1N1CCC(N2CCN(Cc3ccc4c(c3)CN(C3CCC(=O)NC3=O)C4=O)CC2)CC1` (stereo not drawn) [Example E217] are more than 4000 nM, 623 nM, 0.9 nM and more than 4000 nM.
Regarding `CCc1cc(Nc2ncc(C(=O)OC(C)C)c(Nc3ccccc3P(C)(C)=O)n2)c(OC)cc1N1CCC(N2CCN(CCCCOc3cccc4c3CN(C3CCC(=O)NC3=O)C4=O)CC2)CC1` (stereo not drawn) [Example E105], the 50% inhibitory concentration (IC50) came out at 2060 nM in assay [1], 1490 nM in the assay with BaF3 (EGFR WT), 10.5 nM against BaF3 (EGFR Del19/C797S) and 1970 nM with A431.
For `CCc1cc(Nc2ncc(Cl)c(Nc3ccccc3P(C)(C)=O)n2)c(OC)cc1N1CCC(N2CCN(C3(/C=C\c4cccc5c4CN(C4CCC(=O)NC4=O)C5=O)CC3)CC2)CC1` (stereo not drawn) [Example E85], in that order: 53 nM, 1880 nM, 13.7 nM and 1370 nM.
For `CCc1cc(Nc2ncc(Cl)c(Nc3ccccc3P(C)(C)=O)n2)c(OC)cc1N1CCC(N2CCN(CCOc3cccc4c3CN(C3CCC(=O)NC3=O)C4=O)CC2=O)CC1` (stereo not drawn) [Example E118], in that order: 112 nM, more than 4000 nM, 6.3 nM and 1340 nM.
On to `CCc1cc(Nc2ncc(Cl)c(Nc3ccccc3P(C)(C)=O)n2)c(OC)cc1N1CCC(N2CCC3(CC(Oc4cccc5c4CN(C4CCC(=O)NC4=O)C5=O)C3)C2)CC1` (stereo not drawn) [Example E83], for which the IC50 stood at 18 nM in assay [1], 1450 nM in the assay on BaF3 (EGFR WT), 1.2 nM against BaF3 (EGFR Del19/C797S) and 1470 nM in the assay on A431.
For `CCc1cc(Nc2ncc(-n3ccnn3)c(Nc3ccccc3P(C)(C)=O)n2)c(OC)cc1N1CCC(N2CCN(CCOc3ccc4c(c3)CN(C3CCC(=O)NC3=O)C4=O)CC2)CC1` (stereo not drawn) [Example E220], in that order: more than 4000 nM, more than 4000 nM, 4 nM and more than 4000 nM.
Consider `CCc1cc(Nc2ncc(Cl)c(Nc3ccccc3P(C)(C)=O)n2)c(OC)cc1N1CCC(N2Cc3ccc(Sc4cccc5c4CN(C4CCC(=O)NC4=O)C5=O)cc3C2)CC1` (stereo not drawn) [Example E173], for which the half-inhibitory concentration (IC50) is 181 nM in assay [1], 1530 nM with BaF3 (EGFR WT), 21.7 nM on BaF3 (EGFR Del19/C797S) and more than 4000 nM in the assay with A431.
On the same counts, the results for `CCc1cc(Nc2ncc(-c3nnc(C)o3)c(Nc3ccccc3P(C)(C)=O)n2)c(OC)cc1N1CCC(N2CCN(CCOc3cccc4c3CN(C3CCC(=O)NC3=O)C4=O)CC2)CC1` (stereo not drawn) [Example E177] are more than 4000 nM, more than 4000 nM, 15.7 nM and more than 4000 nM.
As to `CCc1cc(Nc2ncc(Cl)c(Nc3ccccc3P(C)(C)=O)n2)c(OC)cc1N1CCC(N2CCN(C(=O)COc3cccc4c3CN(C3CCC(=O)NC3=O)C4=O)CC2)CC1` (stereo not drawn) [Example E82], the 50% inhibitory concentration (IC50) in assay [1] was found to be 162 nM; with BaF3 (EGFR WT) it was 781 nM; in assay [2], 17 nM; in the assay on A431, 1780 nM.
`CCc1cc(Nc2nc(Nc3ccccc3P(C)(C)=O)c3cc[nH]c3n2)c(OC)cc1N1CCC(N2CCN(CCCCOc3cc(F)cc4c3CN(C3CCC(=O)NC3=O)C4=O)CC2)CC1` (stereo not drawn) [Example E141]: the IC50 in assay [1] is 50.3 nM; with BaF3 (EGFR WT) it was more than 4000 nM; against BaF3 (EGFR Del19/C797S), 14.7 nM; in the assay on A431, more than 4000 nM.
For `CCc1cc(Nc2nc(Nc3ccccc3P(C)(C)=O)c3cc[nH]c3n2)c(OC)cc1N1CCC(N2CCN(CCCCOc3cccc4c3CN(C3CCC(=O)NC3=O)C4=O)CC2)CC1` (stereo not drawn) [Example E64], the concentration for half-maximal inhibition (IC50) is 41.5 nM in assay [1], more than 4000 nM in the assay on BaF3 (EGFR WT), 11.7 nM at BaF3 (EGFR Del19/C797S) and more than 4000 nM in the assay on A431.
Take `CCc1cc(Nc2ncc(Cl)c(Nc3ccccc3P(C)(C)=O)n2)c(OC)cc1N1CCC(N2CCN(CCCCOc3cccc4c3CN(C3CCC(=O)NC3=O)C4=O)CC2=O)CC1` (stereo not drawn) [Example E101]: the IC50 in assay [1] came out at 51.6 nM; with BaF3 (EGFR WT), 1690 nM; against BaF3 (EGFR Del19/C797S) it was 6.8 nM; with A431 it was 1440 nM.
For `CCc1cc(Nc2ncc(Cl)c(Nc3ccccc3P(C)(C)=O)n2)c(OC)cc1N1CCC(N2CCN(C(=O)CCCOc3cccc4c3CN(C3CCC(=O)NC3=O)C4=O)CC2)CC1` (stereo not drawn) [Example E88], in that order: 59.9 nM, 2700 nM, 9.1 nM and 1610 nM.
On to `CCc1cc(Nc2ncc(Cl)c(Nc3ccccc3P(C)(C)=O)n2)c(OC)cc1N1CCC(N2CCN(CCC#Cc3ccc4c(c3)c(N3CCC(=O)NC3=O)nn4C)CC2)CC1` [Example E145], for which the concentration for half-maximal inhibition (IC50) in assay [1] is 506 nM; in the assay on BaF3 (EGFR WT) it was more than 4000 nM; against BaF3 (EGFR Del19/C797S) it was 79.1 nM; with A431, 1110 nM.
Turning to `CCc1cc(Nc2ncc(-n3cnc(C)c3)c(Nc3ccccc3P(C)(C)=O)n2)c(OC)cc1N1CCC(N2CCN(CCOc3ccc4c(c3)CN(C3CCC(=O)NC3=O)C4=O)CC2)CC1` (stereo not drawn) [Example E214], the 50% inhibitory concentration (IC50) was more than 4000 nM in assay [1], 616 nM in the assay on BaF3 (EGFR WT), 3.4 nM on BaF3 (EGFR Del19/C797S) and 1460 nM with A431.
Consider `CCc1cc(Nc2ncc(-c3cnn(C)c3)c(Nc3ccccc3P(C)(C)=O)n2)c(OC)cc1N1CCC(N2Cc3ccc(Oc4cccc5c4CN(C4CCC(=O)NC4=O)C5=O)cc3C2)CC1` (stereo not drawn) [Example E172], for which the 50% inhibitory concentration (IC50) is more than 4000 nM in assay [1], 1070 nM in the assay on BaF3 (EGFR WT), 2.4 nM on BaF3 (EGFR Del19/C797S) and more than 4000 nM with A431.
Regarding `CCc1cc(Nc2ncc(Cl)c(Nc3ccccc3P(C)(C)=O)n2)c(OC)nc1N1CCC(N2CCN(CCC#Cc3cccc4c3CN(C3CCC(=O)NC3=O)C4=O)CC2)CC1` (stereo not drawn) [Example E41], the IC50 in assay [1] is 44.4 nM; in the assay with BaF3 (EGFR WT), not below 1060 nM; on BaF3 (EGFR Del19/C797S) it was 8.2 nM; in the assay with A431, 2240 nM.
With `CCc1cc(Nc2ncc(Cl)c(Nc3ccccc3P(C)(C)=O)n2)c(OC)cc1N1CCC2(CCN(C(=O)COc3cccc4c3CN(C3CCC(=O)NC3=O)C4=O)CC2)CC1` (stereo not drawn) [Example E104], the concentration for half-maximal inhibition (IC50) is 43.8 nM in assay [1], 2270 nM in the assay with BaF3 (EGFR WT), 9.1 nM against BaF3 (EGFR Del19/C797S) and more than 4000 nM in the assay with A431.
